Results: ChEMBL document CHEMBL5634119, “Design and synthesis of 4th generation EGFR inhibitors against human triple (Del19/T790M/C797S) mutation” (Eur J Med Chem, 2023)

Tests used:
[1] = Inhibition of EGFR del19/T790M/C797S triple mutant in mouse BAF3 cells assessed as reduction in cell proliferation incubated for 3 days by celltiter-glo assay; assay type: cell-based; conditions: BaF3, 72 h
[2] = Inhibition of wild type EGFR in mouse BAF3 cells assessed as reduction in cell proliferation incubated for 3 days by celltiter-glo assay; assay type: cell-based; conditions: BaF3, 72 h
HCC827 = experiment: Antiproliferative activity against human HCC827 cells harboring EGFR Del19 mutant incubated for 72 hrs by SRB assay; assay type: functional, cell-based; conditions: HCC827, 72 h
NCI-H1975 [3] = experiment: Antiproliferative activity against human NCI-H1975 cells harboring EGFR L858R/T790M mutant incubated for 72 hrs by SRB assay; assay type: functional, cell-based; conditions: NCI-H1975, 72 h
PC-9 = experiment: Antiproliferative activity against human PC-9 cells harboring EGFR Del19/T790M/C797S mutant incubated for 72 hrs by SRB assay; assay type: functional, cell-based; conditions: PC-9, 72 h
NCI-H1975 [4] = experiment: Antiproliferative activity against human NCI-H1975 cells harboring EGFR L858R/T790M/C797S mutant incubated for 72 hrs by SRB assay; assay type: functional, cell-based; conditions: NCI-H1975, 72 h
A-431 = experiment: Antiproliferative activity against human A-431 cells harboring wild type EGFR incubated for 72 hrs by SRB assay; assay type: functional, cell-based; conditions: A-431, 72 h
[5] = target: Epidermal growth factor receptor (Homo sapiens, UniProt P00533, C797S/EX19DEL/T790M); experiment: Inhibition of EGFR del19/T790M/C797S triple mutant (unknown origin) in presence of ATP by FRET assay
Chain of Epidermal growth factor receptor (Homo sapiens, UniProt P00533, C797S/EX19DEL/T790M) (P00533 whole entry, looked up, stated change not applied): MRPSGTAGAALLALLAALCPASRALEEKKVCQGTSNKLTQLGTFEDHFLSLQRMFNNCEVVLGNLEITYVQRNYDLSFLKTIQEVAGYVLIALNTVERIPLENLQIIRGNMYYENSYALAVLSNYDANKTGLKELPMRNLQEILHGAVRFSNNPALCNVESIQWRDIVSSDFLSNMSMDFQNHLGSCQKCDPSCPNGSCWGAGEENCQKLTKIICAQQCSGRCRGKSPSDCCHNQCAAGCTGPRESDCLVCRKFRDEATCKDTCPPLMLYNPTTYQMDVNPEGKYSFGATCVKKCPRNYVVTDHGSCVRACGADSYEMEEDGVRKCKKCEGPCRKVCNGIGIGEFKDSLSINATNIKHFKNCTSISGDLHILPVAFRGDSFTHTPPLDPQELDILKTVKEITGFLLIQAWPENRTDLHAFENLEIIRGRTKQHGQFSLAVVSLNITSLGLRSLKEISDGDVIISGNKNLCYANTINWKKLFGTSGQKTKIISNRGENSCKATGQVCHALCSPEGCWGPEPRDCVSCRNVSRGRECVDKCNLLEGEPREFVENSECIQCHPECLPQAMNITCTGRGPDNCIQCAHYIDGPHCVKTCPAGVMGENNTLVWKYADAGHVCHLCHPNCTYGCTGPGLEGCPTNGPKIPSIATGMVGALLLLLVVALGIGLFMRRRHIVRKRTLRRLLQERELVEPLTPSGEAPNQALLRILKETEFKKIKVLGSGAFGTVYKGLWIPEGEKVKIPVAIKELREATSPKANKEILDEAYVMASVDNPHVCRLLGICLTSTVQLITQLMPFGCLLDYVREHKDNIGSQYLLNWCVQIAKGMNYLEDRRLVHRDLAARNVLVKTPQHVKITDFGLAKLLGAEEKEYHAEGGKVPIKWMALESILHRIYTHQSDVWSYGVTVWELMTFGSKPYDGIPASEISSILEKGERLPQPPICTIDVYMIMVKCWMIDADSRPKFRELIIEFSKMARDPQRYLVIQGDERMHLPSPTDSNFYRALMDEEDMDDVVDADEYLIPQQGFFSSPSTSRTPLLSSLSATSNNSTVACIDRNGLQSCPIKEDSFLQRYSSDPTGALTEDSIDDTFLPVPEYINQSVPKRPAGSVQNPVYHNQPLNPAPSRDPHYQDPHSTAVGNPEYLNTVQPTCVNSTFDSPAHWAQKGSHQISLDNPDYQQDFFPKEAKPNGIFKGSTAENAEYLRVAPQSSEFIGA

[6] = target: Epidermal growth factor receptor (Homo sapiens, UniProt P00533, C797S/L858R/T790M); experiment: Inhibition of EGFR L858R/T790M/C797S triple mutant (unknown origin) in presence of ATP by FRET assay
Chain of Epidermal growth factor receptor (Homo sapiens, UniProt P00533, C797S/L858R/T790M) (P00533 25-1210 T790M/C797S/L858R limits assumed): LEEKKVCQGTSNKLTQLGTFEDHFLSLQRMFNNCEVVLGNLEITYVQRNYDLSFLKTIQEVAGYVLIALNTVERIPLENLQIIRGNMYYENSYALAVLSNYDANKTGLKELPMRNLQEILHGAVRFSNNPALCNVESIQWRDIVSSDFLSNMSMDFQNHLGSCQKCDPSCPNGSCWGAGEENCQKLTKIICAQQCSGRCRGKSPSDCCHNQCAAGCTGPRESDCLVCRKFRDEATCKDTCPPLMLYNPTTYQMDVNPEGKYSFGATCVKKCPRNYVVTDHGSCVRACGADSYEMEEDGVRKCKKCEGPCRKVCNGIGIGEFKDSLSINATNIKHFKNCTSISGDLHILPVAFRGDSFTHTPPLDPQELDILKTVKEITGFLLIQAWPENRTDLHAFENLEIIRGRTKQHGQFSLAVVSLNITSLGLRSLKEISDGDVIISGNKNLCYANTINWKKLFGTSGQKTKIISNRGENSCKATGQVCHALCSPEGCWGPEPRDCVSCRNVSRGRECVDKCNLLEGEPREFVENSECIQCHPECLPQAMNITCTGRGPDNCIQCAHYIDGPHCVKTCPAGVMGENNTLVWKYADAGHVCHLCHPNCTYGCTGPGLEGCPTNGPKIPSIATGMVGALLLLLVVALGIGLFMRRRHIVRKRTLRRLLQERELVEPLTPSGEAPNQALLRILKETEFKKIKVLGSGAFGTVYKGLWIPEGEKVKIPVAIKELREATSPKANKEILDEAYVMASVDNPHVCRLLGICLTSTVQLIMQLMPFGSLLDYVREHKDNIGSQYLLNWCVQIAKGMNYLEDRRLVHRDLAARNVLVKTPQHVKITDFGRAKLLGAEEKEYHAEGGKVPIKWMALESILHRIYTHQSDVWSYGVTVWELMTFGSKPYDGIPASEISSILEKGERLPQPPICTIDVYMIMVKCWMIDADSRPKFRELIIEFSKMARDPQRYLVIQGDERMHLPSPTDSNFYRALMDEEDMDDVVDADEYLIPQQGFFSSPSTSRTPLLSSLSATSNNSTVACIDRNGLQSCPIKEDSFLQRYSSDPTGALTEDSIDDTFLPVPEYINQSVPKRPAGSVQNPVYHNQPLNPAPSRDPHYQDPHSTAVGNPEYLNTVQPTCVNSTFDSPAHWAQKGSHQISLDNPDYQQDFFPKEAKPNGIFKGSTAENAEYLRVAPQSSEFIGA

[7] = target: Epidermal growth factor receptor (Homo sapiens, UniProt P00533); experiment: Inhibition of wild type EGFR (unknown origin) in presence of ATP by FRET assay
Chain of Epidermal growth factor receptor (Homo sapiens, UniProt P00533) (P00533 whole entry): as the sequence (P00533 whole entry, looked up, stated change not applied) above

[8] = Inhibition of ERK phosphorylation in human PC-9 cells harboring Del19/T790M/C797S mutant incubated for 6 hrs by Western blot analysis; assay type: cell-based; conditions: PC-9, 6 h
[9] = Inhibition of AKT phosphorylation in human PC-9 cells harboring Del19/T790M/C797S mutant incubated for 6 hrs by Western blot analysis; assay type: cell-based; conditions: PC-9, 6 h
[10] = Inhibition of ERK phosphorylation in human A-431 cells harboring wild type EGFR incubated for 6 hrs by Western blot analysis; assay type: cell-based; conditions: A-431, 6 h
[11] = Inhibition of AKT phosphorylation in human A-431 cells harboring wild type EGFR incubated for 6 hrs by Western blot analysis; assay type: cell-based; conditions: A-431, 6 h

Structure (SMILES) | IC50 [1] | IC50 [2] | also measured
CN(c1ccccc1Nc1nc(Nc2ccc(N3CCC(N4CCN(C5CC5)CC4)CC3)c(F)c2)nc2[nH]ccc12)S(C)(=O)=O | 213 nM | 815 nM | –
CCCN1CCN(c2ccc(Nc3nc(Nc4ccccc4N(C)S(C)(=O)=O)c4cc[nH]c4n3)cc2F)CC1 | 142 nM | 687 nM | –
CN1CCN(c2ccc(Nc3nc(Nc4ccccc4N(C)S(C)(=O)=O)c4cc[nH]c4n3)cc2)CC1 | 28.4 nM | 120 nM | –
CCN(c1ccccc1Nc1nc(Nc2ccc(N3CCN(C)CC3)c(F)c2)nc2[nH]ccc12)S(C)(=O)=O | 36.6 nM | 203 nM | –
CN1CCN(c2ccc(Nc3nc(Nc4ccccc4N(C)S(C)(=O)=O)c4cc[nH]c4n3)cc2Cl)CC1 | 53.8 nM | 47.4 nM | –
CN1CCN(c2ccc(Nc3nc(Nc4ccccc4N(C)S(C)(=O)=O)c4cc[nH]c4n3)cc2F)CC1 | 22.5 nM | 267 nM | IC50 (HCC827): 230 nM; IC50 (NCI-H1975 [3]): 185 nM; IC50 (PC-9): 208 nM; IC50 (NCI-H1975 [4]): 289 nM; IC50 (A-431): 263 nM; IC50 [5]: 4 nM; IC50 [6]: 20.2 nM; IC50 [7]: 1530 nM
CN(c1ccccc1Nc1nc(Nc2ccc(N3CCN(C(=O)OC(C)(C)C)CC3)c(F)c2)nc2[nH]ccc12)S(C)(=O)=O | 426 nM | 2400 nM | –
COc1cc(N2CCN(C)CC2)ccc1Nc1nc(Nc2ccccc2N(C)S(C)(=O)=O)c2cc[nH]c2n1 | 329 nM | 3170 nM | –
CN(c1ccccc1Nc1nc(Nc2ccc(N3CCCCC3)c(F)c2)nc2[nH]ccc12)S(C)(=O)=O | 741 nM | 739 nM | –
C=CC(=O)Nc1cc(Nc2nccc(-c3cn(C)c4ccccc34)n2)c(OC)cc1N(C)CCN(C)C [OSIMERTINIB] | 1240 nM | 13.5 nM | –
CN(c1ccccc1Nc1nc(Nc2ccc(N3CCCCC3)cc2)nc2[nH]ccc12)S(C)(=O)=O | 566 nM | 1240 nM | –
CN1CCN(c2ccc(Nc3nc(Nc4ccccc4N(C)S(C)(=O)=O)c4cc[nH]c4n3)c(F)c2)CC1 | 157 nM | 202 nM | –
COc1cc(N2CCC(N3CCN(C)CC3)CC2)ccc1Nc1ncc(Cl)c(Nc2ccccc2P(C)(C)=O)n1 [BRIGATINIB] | 227 nM | 782 nM | IC50 (HCC827): 282 nM; IC50 (NCI-H1975 [3]): 380 nM; IC50 (PC-9): 838 nM; IC50 (NCI-H1975 [4]): 1130 nM; IC50 (A-431): 540 nM; IC50 [8]: 3730 nM; IC50 [9]: 984 nM; IC50 [10]: 5830 nM; IC50 [11]: 3330 nM
CN1CCN(c2ccc(Nc3nc(Nc4ccccc4N(C)S(=O)(=O)C4CC4)c4cc[nH]c4n3)cc2F)CC1 | 29.6 nM | 214 nM | –
